Reference: a melting point compilation (Tetko et al.; mined from patent text by program, amines drawn as free bases though some values may be those of a salt)
Residues, ends and D or L forms follow the SMILES beside them. *: point of attachment. Boc = CC(C)(C)OC(=O)*

| melting point [°C] | Structure (SMILES) |
| --- | --- |
| 147 to 149 | O=C(NCCN(Cc1ccccc1)Cc1ccccc1)C1CCN(c2c(Cl)cncc2Cl)CC1 |
| 108 to 118 | CN(C)CCOc1cccc2cc(C(=O)Nc3ccccc3N)oc12 |
| 125 to 126 | CC(C)=CCOc1ccc(C(=O)C=Cc2cccc([N+](=O)[O-])c2)c(O)c1 |
| 223 to 224 | CC1(C)CSCC(C)(C)c2[nH]c(-c3ccccc3)nc21 |
| 115 to 117 | CC1CC(=O)N(CCCCN2CCN(c3ncccn3)CC2)S(=O)(=O)N1 (configuration not stated) |
| 150 | CC(C)(C)c1cc(C(O)C#Cc2ccc(C(=O)O)cc2)ccc1N1CCCC1 (configuration not stated) |
| 154 to 156 | Cc1cc(C)cc(Nn2cnc(C)c2-c2ccccc2)c1 |
| 151 to 152 | COC(=O)CCn1c(=O)n(CCN2CCN(c3ccccc3OC)CC2)c(=O)c2sccc21 |
| 118 to 120 | CN(C)CCCN(C)C(=O)c1cc([N+](=O)[O-])c[nH]1 |
| 178 to 179 | Nc1ccc(-n2ccn(-c3ccc(OCC(F)(F)C(F)F)cc3)c2=O)cc1 |
| 234 to 235 | CC1(C)C(=O)Nc2ccc(-c3cccc([N+](=O)[O-])c3)cc21 |
| 128 to 130 | CNC(=O)c1c(C(F)(F)F)nc(C(F)F)c(C(=O)OC)c1NC(C)C |
| 55 to 58 | COC(=O)C(CCCCN1C(=O)c2ccccc2C1=O)C(=O)OC |
| 178 to 180 | COCOc1cccc(Cn2nc(C(=O)OC)c3c2-c2ccc(OCc4cncnc4)cc2CC3)c1 |
| 199 to 200 | CC(=O)c1ccc(NC(=O)c2cc(Cl)cc(Cl)c2)cc1 |
| 45 to 46 | ClCCOc1ccc2c(c1)CCC2 |
| 135 | CC(=O)c1ccc(C2(O)CC(C)(C)CC(C)(C)C2)cc1 |
| 270 to 272 | Cn1cnc2nc(-c3ccc(C(F)(F)F)cc3)nn2c1=S |
| 37 to 40 | CCCCCCCCCCCCCCCCCCOC(=O)CBr |
| 70 to 72 | CCCCCCC(=N)NC(=S)Nc1ccc(OC)cc1 |
| 175 to 177 | COC(=O)c1nc(-c2ccc(Cl)c(OC)c2F)c(F)c(NC(C)=O)c1Cl |
| 64 | CCn1c(=O)n(CCc2ccc(C)cc2)c(=O)n(C(C)(C)C)c1=O |
| 105 to 107 | COc1c(Cl)nc(Cl)nc1-c1ccco1 |
| 201 to 206 | CCc1c(NC(=O)c2cc(S(C)(=O)=O)ccc2OCC(C)C)c(C(N)=O)nn1Cc1nccn1C |

| melting point [°C] | Structure (SMILES) |
| --- | --- |
| 130 to 132 | C#Cc1cccc(-c2cccc([N+](=O)[O-])c2-c2cc(C#C)ccn2)c1 |
| 66 to 69 | CCN(C)c1nc2cccc(C(=O)OC)c2n1Cc1ccc(-c2ccccc2C#N)cc1 |
| 143 to 144 | Cc1cc(O)ccc1NC(=O)OC(C)(C)C |
| 66 | CCNC1CN(c2ccc(CCO[Si](c3ccccc3)(c3ccccc3)C(C)(C)C)cc2)S(=O)(=O)c2sc(S(N)(=O)=O)cc21 (configuration not stated) |
| 179 to 180 | Nc1nc2[nH]c(CCCCc3ccc(C(=O)N[C@@H](CCC(=O)O)C(=O)O)s3)cc2c(=O)[nH]1 |
| 142 to 143 | CC(C)CC(N)C(=O)NC(CCCCNC(=O)OC(C)(C)C)C(=O)O (configuration not stated) (H-Leu-Lys(Boc)-OH; configuration not given here) |
| 223 to 224 | CCOc1cc(CN2CCN(c3ccc(C(=O)NC4CC4)cc3C)CC2)cc2c1OC(C)C(=O)N2 (configuration not stated) |
| 135 to 137 | CN(C)CCCN(C)C(=O)NC(Cc1c[nH]c2ccccc12)C(=O)CCc1cc(C(F)(F)F)cc(C(F)(F)F)c1 (configuration not stated) |
| 192 to 194 | Cc1nnc2ccc(-c3ccc(Cl)cc3)cn12 |
| 112 to 113 | Cc1ccccc1OCCCc1sc(-n2ccnc2C)nc1-c1ccc(Cl)cc1 |
| 160 to 162 | COc1ccc(Oc2cccc(C(=O)NCCN(O)C(N)=O)c2)cc1 |
| 119 to 122 | CCCc1ccc(C(=O)Nc2ccc(C(=O)c3ccccc3)cc2)cc1 |
| 107 to 111 | NC(=O)COc1cccc(N)c1 |
| 252 | O=c1[nH]c2ccc([N+](=O)[O-])cc2s1 |
| 94 to 96 | O=C(O)Cc1ccc(CCCSc2ccc(Cl)cc2)cc1 |
| 220 to 222 | CCC1C(=O)c2c(cc(O)c(Cl)c2Cl)C1c1ccccc1 (configuration not stated) |
| 142 to 144 | CCOCc1nc2c(N)nc3cc(-c4ccccc4)cnc3c2n1CCCONC(C)C |
| 151 to 153 | CC(C)Oc1ccnc2c1c(I)cn2S(=O)(=O)c1ccccc1 |
| 186 to 188 | Cc1cc2c(-c3ccccc3)c(CC#N)n(C)c(=O)c2cc1C |
| 42 to 45 | COc1cc(C)c(C=CC(C)=CCCC=O)c(C)c1C |
| 154 to 155 | N#Cc1cc(N)ccc1N1CCC(OC(=O)c2ccccc2)CC1 |
| 265 | O=C1Cc2cc(NC(=O)c3ccccc3[N+](=O)[O-])ccc2N1 |
| 85 | O=C1c2ccccc2C(=O)N1CCCC(O)CF (configuration not stated) |
| 252 to 254 | NC(=O)c1cccc(Cn2ccc(OCc3ccc(F)cc3F)c(Cl)c2=O)c1F |

| melting point [°C] | Structure (SMILES) |
| --- | --- |
| 81 to 84 | Cc1nc(NCCc2ccccc2)c2c(n1)N(c1ccccc1)C(=O)C2 |
| 145 to 147 | Cc1n[nH]c(C)c1[C@H](C)NC(=O)COc1cc(C(F)(F)F)c2c(-c3ccccc3)nn(C)c2n1 |
| 191 to 193 | Cc1cc(Cc2ccccc2)nc(Nc2ccc(C(=O)NN)c(F)c2)n1 |
| 192 to 193 | NC(=O)CC(C(N)=O)(c1ccc(F)cc1)c1ccc(F)cc1 |
| 274 to 276 | O=C1CCC(=O)N1c1nc(Nc2ccc(O)c(Cl)c2)cc(-c2ccccc2)n1 |
| 188 to 189 | Cc1nnc(-c2ccc3occ(-c4cc(C(F)(F)F)ccc4Cl)c3c2)o1 |
| 193 | CC(C)(C)CC(=O)N[C@H]1CC[C@H](CCN2CCN(c3nccc4c3OCC4)CC2)CC1 |
| 194 | Clc1cc(-c2cnc3c(c2)N(Cc2c(Cl)cccc2Cl)CCN3)ccn1 |
| 214 | O=C(O)CNC(=O)N1CCc2cc(S(=O)(=O)N3CCN(c4cccc(Cl)c4)CC3)ccc21 |
| 241 to 243 | Oc1ccc2nc(-c3ccc(O)c(C45CC6CC(CC(C6)C4)C5)c3)[nH]c2c1 |
| 66 to 68 | CCCCN(C)CCc1ccc(Nc2ncc3c(n2)-c2ccccc2C(c2cccc(Br)c2)C3)cc1 (configuration not stated) |
| 135 to 140 | N#Cc1ccc(-c2ccc(C(=O)NCCCCN3CCC(c4ccc5ccccc5c4O)CC3)cc2)cc1 |
| 172 | CC1=CCCN(C)C1COC(=O)c1c[nH]c2ccccc12 (configuration not stated) |
| 211 to 212 | O=C(Cc1ccc(OCc2ccccc2)cc1)Nc1c(C(=O)O)oc2cc(-c3ccc(Cl)cc3)ccc12 |
| 216 to 218 | CC(C)Oc1ccc(N2CCCN(c3cc[nH]c(=S)c3C#N)CC2)cc1 |
| 179 to 180 | COc1ccc(C(=O)Nc2ccccc2)cc1NC(=S)Nc1ccc(Cl)cc1 |
| 117 to 119 | Cn1nc(NC2c3cc(C#N)ccc3OC(C)(C)C2O)ccc1=O (configuration not stated) |
| 92 to 93 | COCOc1cc(CO)ccc1OCc1nc(-c2ccco2)oc1C |
| 196 to 197 | COc1ccc(Cn2ncc3c4c(cnc32)C(=O)NC4=O)cc1 |
| 235 to 237 | O=C(O)c1nn(-c2ccc(Cl)cc2Cl)c2c1CCc1sc(Br)cc1-2 |
| 56.1 to 58.7 | COc1ccccc1C(=O)Nc1ccc(Cl)cc1 |
| 218 | COc1ccc2c(c1OC)C(=O)C(O)=C(C)C2=O |
| 150 to 152 | O=C(NCCSCCNC(=O)c1cccc(Cl)c1)c1cccc(Cl)c1 |
| 155 to 156 | CN1C(=O)C2CC(c3ccc(Cl)cc3)(C2)C1=O |

| melting point [°C] | Structure (SMILES) |
| --- | --- |
| 107 to 108 | Cc1c(-c2cn(C)c3c(-c4ccccc4)cccc23)nc2ccc(F)cc2c1C(=O)O |
| 103 to 104 | COC(=O)c1ccc(Cc2cccc3ccc(C=O)cc23)c(OC)c1 |
| 57 to 58 | CCCCCCCCc1ccc(CCC(NC(C)=O)(C(=O)OCC)C(=O)OCC)s1 |
| 266 to 270 | Oc1cc2c3ccc(O)c(O)c3n(Cc3ccc(C(F)(F)F)cc3)c2cc1O |
| 249 to 251 | Cn1c(-c2ccncc2)n[nH]c1=O |
| 64 to 67 | CCCCCCCCCCCCSc1nnn(C(C(=O)O)c2ccccc2)n1 (configuration not stated) |
| 114 | CC(C)(n1cncn1)C(O)(Cn1cncn1)c1ccc(Cl)cc1 (configuration not stated) |
| 140 to 141 | Cc1nc(CC2(C)CCN(c3ccc(F)cc3)CC2)nc(C(=O)NCC(=O)O)c1O |
| 225 to 227 | NC(=S)Nc1cc2ccccc2cn1 |
| > 250 | CS(=O)c1coc2cc(NS(C)(=O)=O)c(Oc3ccccc3)cc2c1=O (configuration not stated) |
| 158 to 161 | O=C(O)CCCCc1ccn2cncc2c1 |
| 156 to 157 | COc1cc(-c2cc(=O)c3ccc(OCCCBr)cc3o2)cc(OC)c1OC |
| 228 to 229 | O=C1OC(c2ccccc2)=NC1=Cc1c(O)ccc2ccccc12 |
| 63 to 64 | CC(C)Sc1nc(-c2nn(C)c(OC(F)F)c2Cl)c(F)cc1Cl |
| 123 | Cn1ncc2c(C(F)(F)F)cc(Cl)nc21 |
| 250 | CC(C)c1cccc(C(C)C)c1NC(=O)CN1C(=O)N(c2ccc(S(C)(=O)=O)cc2)C2(CCCCC2)C1=O |
| 71 to 73 | CC(C)Cn1nc(OCCCc2ccc(OC(C)C)cc2Oc2ncc(C(F)(F)F)cc2Cl)cc1CCC(=O)O |
| 106 to 107 | FC(F)(F)c1cc(-n2cncn2)c2cccc(C(F)(F)F)c2n1 |
| 166 to 168 | COc1cc(C)c(C(C)O)cc1NC(=S)N1CCN(c2cc(Cl)cc(Cl)c2)CC1 (configuration not stated) |
| 119 to 120 | CCn1c2ccc(C=NNc3ccccc3)cc2c2cc(C=NNc3ccccc3)ccc21 |
| 201 to 203 | CC(C)(C)S(=O)(=O)N[C@H]1CC[C@H](C(=O)O)CC1 |
| 222 to 224 | COc1ccccc1N1CCN([C@@H]2Cc3c(O)ccc(O)c3C[C@H]2O)CC1 (relative stereo) |
| 196 to 198 | COC(=O)N(CC(=O)Nc1ccc(S(N)(=O)=O)cc1Cl)c1ccccc1 |
| 252 to 254 | Cn1nc(-c2c(Nc3ccccc3)nc(N)nc2-c2ccccc2)ccc1=O |

| Structure (SMILES) | melting point [°C] |
| --- | --- |
| CN1C(=O)N(c2ccc(C#N)c(C(F)(F)F)c2)C(=O)C1(CF)CF | 137 to 138 |
